Assays:
[1] = Ability to trap the DPPH radical; conditions: 5 μg/mL
Description: PRINCIPLE: This method is based on the reduction of an alcoholic solution of the stable form of the DPPH. radical in the presence of an antioxidant donor of hydrogen (AH), which leads to the formation of a non-radical form DPPH-H. This reduction causes a color change from violet to yellow which could be studied at 517 nm. The faster the color change occurs, the more the donor is considered as a strong antioxidant. PROTOCOL: 50 μL of different concentrations of each extract was added to 1.950 mL of freshly prepared methanolic DPPH. […] After incubation for 30 minutes in the dark and at room temperature, the absorbance was read at 517 nm. Methanol was used as control and ascorbic acid was used as standard. The ability to trap DPPH^· was expressed in percentage inhibition as calculated using the following equation: [formula] The inhibitory concentrations 50 (IC50) were later determined by extrapolating after drawing curves of percentage inhibition against concentration. All samples were analyzed in triplicates. I.4.3. Evaluation of DPPH^· Anti-Radical Activity of Rough Extract Fractions This activity was evaluated using the protocol of Sanchez-Moreno et al. (1998) as described earlier.

[2] = system: lipid peroxidation induced in brain homogenates; experiment: Inhibition of FeSO4-induced lipid peroxidation in brain homogenates; type: biochemical, Wistar rats
From the text: I.2.3 Inhibitory Activity of Lipid Peroxide in Nitro (Prasanth et al., 2000)
PRINCIPLE: Lipid peroxidation refers to the oxidative degradation of lipids which provoke a continuous increase in the permeability of cell membranes, inducing an irreversible alteration of the functional properties of the cell which could eventually lead to cytolysis. It is a radical chain reaction in which a free radical cleaves a hydrogen atom from membrane lipids in order to form a conjugated diene radical, which is oxidized to a peroxyl that in turn generates other radical reactions leading to the formation of terminal products such as MDA. Iron can stimulate lipid peroxidation either by Fenton reaction or by acceleration of peroxidation through the decomposition of lipid hydroperoxides into peroxyl or alkoxyl radicals; themselves capable of cleaving a hydrogen and perpetrating lipid peroxidation. The MDA from this reaction reacts with TBA to give pink colored chromophores which absorb at 532 nm. […]
The lipid peroxidation test was conducted as follows: 300 μL of plant extract at different concentrations and distilled water (control) were added to 500 μL of each homogenate. […] The absorbance was read at 532 nm. […] The IC50 were determined by extrapolating after drawing curves of lipid peroxidation percentage inhibition against the concentrations of plant extracts.

[3] = system: Aluminum chloride induced neurotoxicity in Wistar rats; experiment: Aluminum chloride induced neurotoxicity in rats: thiol proteins in brain; type: in vivo; conditions: brain of rats; AlCl3 32.5 mg/kg i.p.; Vit E 100 mg/kg BW/day (VE100)
Description: (§1) [formula] I.3. Evaluation of Neuro-Protective Effects of the Hydro-Ethanolic Extract of B. toxisperma Against Aluminum Chloride Induced Neurotoxicity (Animal Model of Neurotoxicity)
(§2) Twenty albinos Wistar rats weighing between 230-250 g were used for this experiment in which the treatment lasted 3 days. The experimentation was conducted in the animal house of the Laboratory of Nutrition and Nutritional Biochemistry of the department of Biochemistry (Faculty of Science, University of Yaounde I). Animals were fed with standard feed and drinking water ad libitum.
Rats were divided into 5 groups of 4 rats each. […]
(§3) PROTOCOL: The assay tubes contained 100 μL of homogenate or plasma or ovalbumin (caliber) and 3 mL of Biuret's reagent (annex 3c). […] The optical densities were read at 540 nm against a blank which contained 3 mL of reagent solution and 100 μL of NaCl 0.9% incubated under similar conditions. The total protein concentration was determined from the following equation: […]
PROTOCOL: 100 μL of homogenate and 900 μL of Ellman's reagent (annex 3d) were added into the assay tubes, homogenized and incubated at room temperature for 30 minutes before reading the optical densities at 412 nm against a blank which contained 900 μL the reagent solution and 100 μL of NaCl 0.9% incubated under similar conditions as the assay. […] Results were expressed as μmol/g of total proteins.

[4] = system: Aluminum chloride induced neurotoxicity in Wistar rats; experiment: Aluminum chloride induced neurotoxicity in rats: catalase activity in brain; type: in vivo
Description: as §1, §2
(§4) Rats were divided into 5 groups of 4 rats each. A unique dose of 32.5 mg/kg BW of aluminum trichloride (AlCl3) was administered by intra peritoneal (i.p) route. […]
as §3
PRINCIPLE: This method is based on the fact that the catalase present in hemolysates or homogenates reduces hydrogen peroxide (H2O2) to water (H2O) and oxygen (O2). […] Catalase activity is proportional to the optical density and is determined by use of a calibration curve. […]

[5] = system: Aluminum chloride induced neurotoxicity in Wistar rats; experiment: Aluminum chloride treated rats: plasma creatinine, renal toxicity; type: in vivo
Description: as §1, §2
(§5) Rats were divided into 5 groups of 4 rats each. A unique dose of 32.5 mg/kg BW of aluminum trichloride (AlCl3) was administered by intra peritoneal (i.p) route. 24 hours later, different doses of plant extract and vitamin E (reference) were administered by oral route, using a gastro-oesophagian probe once a day for 3 days.
24 hours after the last administration, animals were sacrificed under mild anesthesia in Ether vapor following a 12 hours fasting. […]
PROTOCOL: 1 mL of working solution (annex 3f) was placed into test tubes and 0.1 mL of plasma and caliber added respectively to assay and blank tubes. Tubes were agitated and their optical densities read 520 nm against a blank; within the 20 seconds that followed the stabilization of the mixture. […] The concentration of creatinine was determined from the following equation: […]

[6] = Ability to trap the hydroxyl radical (deoxyribose oxidation, Fenton reaction)
From the text: I.2.3 Ability to Trap the Hydroxyl (^·OH) Radical (Halliwell et al., 1987)
PRINCIPLE: The […] capacity of plant extracts to trap the hydroxyl radical is based on the Fenton reaction, by measuring the production of ·OH radical and its effect on the oxidation and degradation bio-molecules such as deoxyribose in DNA. The system in this technique involves an auto-oxidation of the Fe^2+-EDTA complex in an aqueous medium to form the superoxide (O2^−·) anion which is rapidly dismutated into H2O2 at a pH of 7.4. The latter then reacts with Fe^2+ form ^·OH radicals in the presence of ascorbic acid which acts as catalyst (Fenton reaction). […]
PROTOCOL: The reaction mixture contained the following reagents: 0.4 mL of phosphate buffer (50 mmol/L, pH=7.4), 0.1 mL of different concentrations of the extract, 0.1 mL of EDTA (1.04 mmol/L), 0.1 mL of FeCl3 (1 mmol/L) and 0.1 mL 2-deoxyribose (60 mmol/L). the reaction was initiated by adding 0.1 mL of ascorbic acid (2 mmol/L) and 0.1 mL of H2O2 (10 mmol/L). after incubating for 1 hour at 37° C., 1 mL of TBA (10 g/L) were added into the reaction medium followed by 1 mL of HCl (25% v/v). […] The absorbance was then read at 532 nm. The capacity of extracts to trap the hydroxyl radical was expressed as percentage inhibition of the oxidation of 2-deoxyribose based on the following formula: […]

[7] = system: Aluminum chloride induced neurotoxicity in Wistar rats; experiment: Aluminum chloride induced neurotoxicity in rats: MDA in brain; type: in vivo
Description: as §1, §2, §4
PROTOCOL: 100 μL of homogenate and 400 μL of TBA reagent (annex 3b) were introduced into glass test tubes (blank and assay) which were tightly corked. […] The tubes were later opened for any gas to evaporate before centrifugation for 5 minutes at 1500 revs/minute and the absorbance of the liquid phase was read at 532 nm against a blank which contained 400 μL of reagent solution and 100 μL of NaCl 0.9% incubated in similar conditions. The concentration of MDA was determined using it molar extinction coefficient (ε=1.53×10^5 M^−1·cm^−1) and the following formula.

[8] = system: Aluminum chloride induced neurotoxicity in Wistar rats; experiment: Aluminum chloride treated rats: plasma transaminases ASAT (GOT) and ALAT (GPT), hepatic toxicity; type: in vivo
Description: as §1, §2, §5
24 hours after the last administration, animals were sacrificed under mild anesthesia in Ether vapor following a 12 hours fasting. The rats' bloods were collected in EDTA tubes. Cervical dislocations were performed immediately after blood collections, to remove the brains which were then rinsed in physiologic solution (0.9% NaCl) and weighed. Plasmas were extracted from the bloods collected and the brains were used to prepare 10% homogenates which served for biochemical analysis.
The blood in EDTA tubes were allowed to stand at room temperature, then centrifuged for 10 minutes at 900 revs/minute, the resulting liquid phase (plasma) was then collected into Eppendorf tubes and stored at −20° C.
1.3.3.3.1. Evaluation of the Activities of the Oxaloglutamate (GOT) and Glutamo-Pyruvate (GPT) Transaminases (Reitman et Franckel, 1957) (Hepatic Toxicity) […]
PROTOCOL: EVALUATION DE L′ACTIVITÉ DE L′ASAT (GOT): 100 μL of substrate solution (annex 3e) were put into tubes, pre-incubated at 37° C. for 5 minutes then 0.02 mL of plasma was added. […] Optical densities were read at 505 nm against a blank (made up of 100 μL of substrate solution and 0.02 mL of NaCl 0.9%) titrated under similar conditions. […]

[9] = HEEBT 150 and 300 mg/kg BW, vitamin E, p<0.05
[10] = HEEBT 150 and 300 mg/kg BW, vitamin E
[11] = plasma, AlCl3 32.5 mg/kg i.p., Vit E 100 mg/kg BW/day (VE100)

| IC50 for lipid peroxidation induced in the brain [2] | IC50 ·OH scavenging activity [6] | Molecule | % inhibition of DPPH radical [1] | percentage inhibition of lipid peroxidation in brain homogenates ([2]; 1000 m/mL) | Thiols proteins [3] | effect on catalase activity compared with the PC group [4, 9] | Catalase ([4]; brain of rats, AlCl3 32.5 mg/kg i.p., Vit E 100 mg/kg BW/day (VE100)) | effect on plasma creatinine after aluminum [5, 10] | Créatinine [5, 11] | effect on MDA level in rats compared with the positive control (PC) [7, 9] | MDA ([7]; brain of rats, AlCl3 32.5 mg/kg i.p., Vit E 100 mg/kg BW/day oral, 3 days (VE100)) | effect on activities of plasma transaminases after aluminum [8, 10] | ALAT [8, 11] | ASAT [8, 11] |
| --- | --- | --- | --- | --- | --- | --- | --- | --- | --- | --- | --- | --- | --- | --- |
|  |  | O=C1O[C@H]([C@@H](O)CO)C(O)=C1O [Vitamin C, ascorbic acid] | 54% |  |  |  |  |  |  |  |  |  |  |  |
| 0.574 mg/mL | 25.3 mg/mL | Vitamin E |  | 60.427% | 0.299 ± 0.071 μg/mg of proteins | significantly (p<0.05) restore | 0.030 ± 0.003 mM H2O2/min/mg of proteins | tend to normalize | 2.297 ± 0.181 mg/dL | significantly (p<0.05) reduced | 4.631 ± 0.652 µM | tend to normalize | 60.135 ± 7.453 unité d'ALAT/mL | 76.363 ± 1.868 unité d'ASAT/mL |
